Measured values: paper PMC11208024, “Cholestenoic acid as endogenous epigenetic regulator decreases hepatocyte lipid accumulation in vitro and in vivo” (American Journal of Physiology - Gastrointestinal and Liver …, 2023)
pEC50, pIC50: −log10 of the molar value.

Key:
Type in all cases: biochemical
[1] = biological target: T1, DNA methyltransferases 1 (DNMT1) (Homo sapiens, UniProt P26358); experiment: radiometric methyltransferase assay with recombinant enzyme, poly(dI-dC) and 3H-SAM; activation at low, inhibition at higher concentration (IC50 […])
T1 sequence (P26358 whole entry): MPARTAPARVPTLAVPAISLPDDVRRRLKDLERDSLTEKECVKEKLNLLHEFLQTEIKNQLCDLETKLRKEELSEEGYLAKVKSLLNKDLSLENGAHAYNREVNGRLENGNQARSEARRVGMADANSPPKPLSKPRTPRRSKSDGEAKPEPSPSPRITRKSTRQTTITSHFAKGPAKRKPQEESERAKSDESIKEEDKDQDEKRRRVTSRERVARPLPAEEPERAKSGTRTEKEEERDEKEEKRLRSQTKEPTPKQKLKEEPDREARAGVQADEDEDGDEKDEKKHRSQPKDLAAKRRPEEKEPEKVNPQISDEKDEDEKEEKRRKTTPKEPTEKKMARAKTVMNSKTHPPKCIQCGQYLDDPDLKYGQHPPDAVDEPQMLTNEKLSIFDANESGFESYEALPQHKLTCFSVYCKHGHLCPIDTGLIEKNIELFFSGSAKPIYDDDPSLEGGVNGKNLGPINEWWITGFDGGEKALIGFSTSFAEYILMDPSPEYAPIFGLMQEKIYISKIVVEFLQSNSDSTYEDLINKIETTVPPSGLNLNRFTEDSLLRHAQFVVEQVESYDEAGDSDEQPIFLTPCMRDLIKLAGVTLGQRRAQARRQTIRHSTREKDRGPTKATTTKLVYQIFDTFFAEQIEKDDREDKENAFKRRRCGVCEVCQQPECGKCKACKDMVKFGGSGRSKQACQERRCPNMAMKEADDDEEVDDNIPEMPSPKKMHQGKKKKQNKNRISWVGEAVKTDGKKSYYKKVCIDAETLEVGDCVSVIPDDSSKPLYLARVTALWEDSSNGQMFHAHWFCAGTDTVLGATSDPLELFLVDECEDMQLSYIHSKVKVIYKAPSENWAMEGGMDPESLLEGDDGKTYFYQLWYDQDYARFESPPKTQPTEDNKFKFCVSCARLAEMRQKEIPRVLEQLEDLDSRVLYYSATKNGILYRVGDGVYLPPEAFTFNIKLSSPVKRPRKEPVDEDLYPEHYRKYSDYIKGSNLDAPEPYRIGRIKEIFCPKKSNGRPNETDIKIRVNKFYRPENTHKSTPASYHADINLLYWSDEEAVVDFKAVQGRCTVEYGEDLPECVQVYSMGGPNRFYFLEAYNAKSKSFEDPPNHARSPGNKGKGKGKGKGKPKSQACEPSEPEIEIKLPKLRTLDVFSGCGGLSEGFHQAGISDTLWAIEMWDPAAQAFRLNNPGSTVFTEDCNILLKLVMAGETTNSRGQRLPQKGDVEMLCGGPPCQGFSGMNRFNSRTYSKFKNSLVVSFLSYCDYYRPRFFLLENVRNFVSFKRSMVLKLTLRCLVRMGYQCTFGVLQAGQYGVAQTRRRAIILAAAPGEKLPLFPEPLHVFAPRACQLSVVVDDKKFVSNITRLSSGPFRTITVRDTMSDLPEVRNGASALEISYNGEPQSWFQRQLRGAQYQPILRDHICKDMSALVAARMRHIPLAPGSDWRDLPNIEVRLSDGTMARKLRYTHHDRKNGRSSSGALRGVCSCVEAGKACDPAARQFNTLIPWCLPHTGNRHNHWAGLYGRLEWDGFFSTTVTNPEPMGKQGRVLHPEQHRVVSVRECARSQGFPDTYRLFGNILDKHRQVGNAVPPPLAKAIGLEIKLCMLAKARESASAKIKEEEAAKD

[2] = biological target: DNMT3b (Homo sapiens, UniProt Q9UBC3); experiment: radiometric methyltransferase assay with recombinant enzyme, Lambda DNA substrate and 3H-SAM
[3] = biological target: DNMT3a (Homo sapiens, UniProt Q9Y6K1); experiment: as above
Sequence of DNMT3a (Q9Y6K1 whole entry, looked up): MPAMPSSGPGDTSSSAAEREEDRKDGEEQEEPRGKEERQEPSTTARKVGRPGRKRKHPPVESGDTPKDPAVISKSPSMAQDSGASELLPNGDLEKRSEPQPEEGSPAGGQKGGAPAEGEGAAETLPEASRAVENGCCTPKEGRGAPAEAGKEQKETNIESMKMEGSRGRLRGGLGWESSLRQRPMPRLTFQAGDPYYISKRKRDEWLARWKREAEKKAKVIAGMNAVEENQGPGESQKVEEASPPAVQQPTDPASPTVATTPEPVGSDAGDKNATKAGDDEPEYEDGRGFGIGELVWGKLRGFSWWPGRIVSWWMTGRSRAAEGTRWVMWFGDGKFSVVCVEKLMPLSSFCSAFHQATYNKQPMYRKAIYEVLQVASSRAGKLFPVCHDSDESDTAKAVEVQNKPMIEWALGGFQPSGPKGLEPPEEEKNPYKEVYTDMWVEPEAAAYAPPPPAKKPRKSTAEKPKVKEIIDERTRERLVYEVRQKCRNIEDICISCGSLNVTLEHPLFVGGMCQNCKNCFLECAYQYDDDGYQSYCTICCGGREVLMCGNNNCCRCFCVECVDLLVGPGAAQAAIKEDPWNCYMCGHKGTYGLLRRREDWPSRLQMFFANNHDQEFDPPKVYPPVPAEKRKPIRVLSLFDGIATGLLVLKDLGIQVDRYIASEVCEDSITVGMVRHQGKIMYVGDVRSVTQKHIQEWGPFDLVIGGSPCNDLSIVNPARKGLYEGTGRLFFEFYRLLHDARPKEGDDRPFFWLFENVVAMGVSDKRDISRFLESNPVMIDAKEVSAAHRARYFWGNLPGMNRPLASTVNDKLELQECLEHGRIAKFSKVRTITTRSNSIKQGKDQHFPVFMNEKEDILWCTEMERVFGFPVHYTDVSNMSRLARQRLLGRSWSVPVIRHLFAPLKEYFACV

[4] = biological target: T1, DNA methyltransferases 1 (DNMT1); experiment: positive control in radiometric DNMT1 assay; […] inhibition at […]

| SMILES | pEC50 [1] | pIC50 [2] | pIC50 [3] | inhibition at 1 µM [4] |
| --- | --- | --- | --- | --- |
| C[C@H](CCC[C@@H](C)[C@H]1CC[C@H]2[C@@H]3CC=C4C[C@@H](O)CC[C@]4(C)[C@H]3CC[C@]12C)C(=O)O [CA, Cholestenoic acid] | 5.70 | 5.31 | 5.08 |  |
| Nc1ncnc2c1ncn2[C@@H]1O[C@H](CSCC[C@H](N)C(=O)O)[C@@H](O)[C@H]1O [S-adenosyl homocysteine] |  |  |  | 95% |
